Assays:
HT-29 = assay: cells; conditions: Homo sapiens, HT-29, 72 h
cells [1] = conditions: Homo sapiens, NCI-H460, 72 h
cells [2] = conditions: Homo sapiens, MKN-45, 72 h
A549 = assay: cells; conditions: Homo sapiens, A549, 72 h
[3] = Cytotoxicity against human U87MG cells assessed as inhibition of cell growth after 72 hrs by MTT assay; type: functional, cell-based, U-87MG ATCC; conditions: U-87 MG

| SMILES | IC50 (HT-29) [nM] | IC50 (cells [1]) [nM] | IC50 (cells [2]) [nM] | IC50 (A549) [nM] | IC50 [3] [nM] |
| --- | --- | --- | --- | --- | --- |
| COc1cc2c(Oc3ccc(NC(=O)c4nn(-c5ccc(F)c(F)c5)c(=O)cc4C)cc3F)ccnc2cc1OCCCN1CCOCC1 | 160 | 390 | 90 | 320 |  |
| COc1cc2c(Oc3ccc(NC(=O)c4nn(-c5ccc(Cl)cc5)c(=O)cc4C)cc3F)ccnc2cc1OCCCN1CCC(C)CC1 | 180 | 370 | 150 | 210 | 1350 |
| COc1cc2c(Oc3ccc(NC(=O)c4nn(-c5ccc(Cl)cc5Cl)c(=O)cc4C)cc3F)ccnc2cc1OCCCN1CCC(C)CC1 | 170 | 250 | 120 | 200 |  |
| COc1cc2c(Oc3ccc(NC(=O)c4nn(-c5ccccc5C(F)(F)F)c(=O)cc4C)cc3F)ccnc2cc1OCCCN1CCN(C)CC1 | 170 | 240 | 40 | 170 | 1170 |
| COc1cc2c(Oc3ccc(NC(=O)c4nn(-c5ccccc5OC(F)(F)F)c(=O)cc4C)cc3F)ccnc2cc1OCCCN1CCN(C)CC1 | 180 | 260 | 100 | 130 | 1440 |
| COc1ccc(-n2nc(C(=O)Nc3ccc(Oc4ccnc5cc(OCCCN6CCN(C)CC6)c(OC)cc45)c(F)c3)c(C)cc2=O)cc1 | 3520 | 3660 | 1230 | 2200 |  |
| COc1cc2c(Oc3ccc(NC(=O)c4nn(-c5ccc(F)c(F)c5)c(=O)cc4C)cc3F)ccnc2cc1OCCCN1CCN(C)CC1 | 170 | 190 | 120 | 130 |  |
| COc1cc2c(Oc3ccc(NC(=O)c4nn(-c5ccccc5OC(F)(F)F)c(=O)cc4C)cc3F)ccnc2cc1OCCCN1CCCC1 | 180 | 210 | 60 | 140 | 1280 |
| COc1cc2c(Oc3ccc(NC(=O)c4nn(-c5ccc(Cl)cc5)c(=O)cc4C)cc3F)ccnc2cc1OCCCN1CCCC1 | 260 | 360 | 150 | 230 | 1430 |
| COc1cc2c(Oc3ccc(NC(=O)c4nn(-c5ccc(F)c(F)c5)c(=O)cc4C)cc3F)ccnc2cc1OCCCN1CCCC1 | 150 | 170 | 80 | 220 | 1400 |
| COc1cc2c(Oc3ccc(NC(=O)c4nn(-c5ccccc5)c(=O)cc4C)cc3F)ccnc2cc1OCCCN1CCCCC1 | 160 | 280 | 160 | 150 | 1370 |
| COc1cc2c(Oc3ccc(NC(=O)c4nn(-c5ccccc5C(F)(F)F)c(=O)cc4C)cc3F)ccnc2cc1OCCCN1CCCCC1 | 170 | 210 | 90 | 140 | 1150 |
| COc1cc2c(Oc3ccc(NC(=O)c4nn(-c5ccccc5OC(F)(F)F)c(=O)cc4C)cc3F)ccnc2cc1OCCCN1CCCCC1 | 190 | 230 | 40 | 120 | 1300 |
| COc1cc2c(Oc3ccc(NC(=O)c4nn(-c5ccc(Cl)cc5)c(=O)cc4C)cc3F)ccnc2cc1OCCCN1CCCCC1 | 360 | 460 | 230 | 320 | 1400 |
| COc1cc2c(Oc3ccc(NC(=O)c4nn(-c5ccccc5C(F)(F)F)c(=O)cc4C)cc3F)ccnc2cc1OCCCN1CCC(C)CC1 | 180 | 200 | 60 | 160 | 1120 |
| COc1cc2c(Oc3ccc(NC(=O)c4nn(-c5ccccc5OC(F)(F)F)c(=O)cc4C)cc3F)ccnc2cc1OCCCN1CCOCC1 | 170 | 200 | 90 | 120 | 1300 |
| COc1ccc(-n2nc(C(=O)Nc3ccc(Oc4ccnc5cc(OCCCN6CCOCC6)c(OC)cc45)c(F)c3)c(C)cc2=O)cc1 | 1230 | 1770 | 260 | 1500 |  |

— ChEMBL document CHEMBL3286137, “Design, synthesis and structure-activity relationships of novel 4-phenoxyquinoline derivatives containing pyridazinone moiety as potential antitumor agents” (Eur J Med Chem, 2014)
